Reference: patent US20150105252A1, “SUBSTITUTED PYRAZOLES AS HERBICIDES” (E I DU PONT DE NEMOURS AND COMPANY, priority 2013, published 2015)

Experiments:
pigweed, palmer = assay: Test F postemergence; type: in vivo, Amaranthus palmeri; conditions: scale 0 to 100
Description: Seeds of plant species selected from corn (Zea mays), soybean (Glycine max), velvetleaf (Abutilon theophrasti), lambsquarters (Chenopodium album), wild poinsettia (Euphorbia heterophylla), pigweed, palmer (palmer pigweed, Amaranthus palmeri), common waterhemp (Amaranthus rudis), surinam grass (Brachiaria decumbens), large crabgrass (Digitaria sanguinalis), crabgrass, Brazil (Brazilian crabgrass, Digitaria horizontalis), fall panicum (Panicum dichotomiflorum), giant foxtail (Setaria faberii), green foxtail (Setaria viridis), goosegrass (Eleusine indica), johnsongrass (Sorghum halepense), common ragweed (Ambrosia elation), barnyardgrass (Echinochloa crus-galli), southern sandbur (Cenchrus echinatus), arrowleaf sida (Sida rhombifolia), Italian ryegrass (Lolium multiflorum), dayflower, VA (Virginia (VA) dayflower, Commelina virginica), field bindweed (Convolvulus arvensis), cocklebur (common cocklebur, Xanthium strumarium), morningglory (Ipomoea coccinea), nightshade (eastern black nightshade, Solanum ptycanthum), kochia (Kochia scoparia), yellow nutsedge (Cyperus esculentus), and hairy beggarticks (Bidens pilosa), were planted into a silt loam soil and treated preemergence with test chemicals formulated in a non-phytotoxic solvent mixture which included a surfactant.
At the same time, plants from these crop and weed species and also horseweed (Canada horseweed, Conyza canadensis), smartweed (ladysthumb smartweed, Polygonum persicaria), waterhemp_RES1, (ALS & Triazine resistant common waterhemp, Amaranthus rudis), and waterhemp_RES2, (ALS & HPPD resistant common waterhemp, Amaranthus rudis) were treated with postemergence applications of test chemicals formulated in the same manner. Plants ranged in height from 2 to 18 cm for postemergence treatments (1- to 4-leaf stage). Treated plants and controls were maintained in a greenhouse for 14 to 21 days, after which time all species were compared to controls and visually evaluated. Plant response ratings, summarized in Table F, are based on a scale of 0 to 100 where 0 is no effect and 100 is complete control. A dash (-) response means no test result.

signalgrass = assay: Test E preemergence; type: in vivo, Brachiaria platyphylla; conditions: 21 days, scale 0 to 100
Description: (§1) Seeds of plant species selected from bermudagrass (Cynodon dactylon), Surinam grass (Brachiaria decumbens), crabgrass, large (large crabgrass, Digitaria sanguinalis), crabgrass, naked (naked crabgrass, Digitaria nuda), foxtail, green (green foxtail, Setaria viridis), johnsongrass (Sorghum halepense), kochia (Kochia scoparia), morningglory (pitted morningglory, Ipomoea lacunosa), nutsedge, purple (purple nutsedge, Cyperus rotundus), ragweed (common ragweed, Ambrosia elation), mustard, black (black mustard, Brassica nigra), guineagrass (Panicum maximum), dallisgrass (Paspalum dilatatum), barnyardgrass (Echinochloa crus-galli), sandbur (southern sandbur, Cenchrus echinatus), sowthistle (common sowthistle, Sonchus oleraceous), ryegrass, Italian (Italian ryegrass, Lolium multiflorum), signalgrass (broadleaf signalgrass, Brachiaria platyphylla), dayflower, VA (Virginia (VA) dayflower, Commelina virginica), bluegrass (annual bluegrass, Poa annua), quackgrass (Elytrigia repens), mallow (common mallow, Malva sylvestris), buckwheat, wild (wild buckwheat, Polygonum convolvulus), leafy spurge (Euphorbia esula), common chickweed (Stellaria media), wild poinsettia (Euphorbia heterophylla), pigweed, palmer (palmer pigweed, Amaranthus palmeri), and pigweed (redroot pigweed, Amaranthus retroflexus) were planted into a blend of loam soil and sand and treated preemergence with test chemicals formulated in a non-phytotoxic solvent mixture which included a surfactant.
(§2) Treated plants and controls were maintained in a greenhouse for 21 days, after which time all species were compared to controls and visually evaluated. Plant response ratings, summarized in Table E, are based on a scale of 0 to 100 where 0 is no effect and 100 is complete control. A dash (-) response means no test result.

crabgrass, large = assay: Test E preemergence; type: in vivo, Digitaria sanguinalis; conditions: 21 days, scale 0 to 100
Description: as §1, §2

dayflower, VA = assay: Test E preemergence; type: in vivo, Commelina virginica; conditions: 21 days, scale 0 to 100
Description: as §1, §2

sedge, umbrella = assay: Test C flooded paddy test; type: in vivo, Cyperus difformis; conditions: Flood
Outline: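 Under a constant 3 cm flood, test compounds went directly into the paddy water. Following 13 to 15 days of greenhouse growth, treated species and controls were compared by eye.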

[1] = 31 g ai/ha, scale 0 to 100 (0 no effect, 100 complete control)
[2] = 62 g ai/ha, scale 0 to 100 (0 no effect, 100 complete control)
[3] = 125 g ai/ha, scale 0 to 100 (0 no effect, 100 complete control)

Compound | Plant response rating, Pigweed, Palmer (pigweed, palmer; Postemergence, 31 g ai/ha) | Plant response rating, Pigweed, Palmer (pigweed, palmer; Postemergence, 125 g ai/ha) | Plant response rating, Pigweed, Palmer (pigweed, palmer; Postemergence, 250 g ai/ha) | Plant response rating, Signalgrass (signalgrass; 16 g ai/ha) | Plant response rating, Signalgrass (signalgrass; 31 g ai/ha) | Plant response rating, Signalgrass (signalgrass; 62 g ai/ha) | Plant response rating, Signalgrass (signalgrass; 125 g ai/ha) | Plant response rating, Signalgrass (signalgrass; 250 g ai/ha) | Plant response rating, Crabgrass, Large (crabgrass, large; 16 g ai/ha) | Plant response rating, Crabgrass, Large (crabgrass, large; 31 g ai/ha) | Plant response rating, Crabgrass, Large (crabgrass, large; 62 g ai/ha) | Plant response rating, Crabgrass, Large (crabgrass, large; 125 g ai/ha) | Plant response rating, Crabgrass, Large (crabgrass, large; 250 g ai/ha) | Plant response rating, Dayflower, VA (dayflower, VA; 16 g ai/ha) | Plant response rating, Dayflower, VA (dayflower, VA; 31 g ai/ha) | Plant response rating, Dayflower, VA (dayflower, VA; 62 g ai/ha) | Plant response rating, Dayflower, VA (dayflower, VA; 125 g ai/ha) | Plant response rating, Dayflower, VA (dayflower, VA; 250 g ai/ha) | Plant response rating, Sedge, Umbrella (sedge, umbrella; [1]) | Plant response rating, Sedge, Umbrella (sedge, umbrella; [2]) | other results
CCc1cc(C(=O)NCC(F)(F)F)nn1Cc1ccnc(C(F)(F)F)c1 [Compound 78, 5-ethyl-N-(2,2,2-trifluoroethyl)-1-[[(2-trifluoromethyl)-4-pyridinyl]methyl]-1H-pyrazole-3-carboxamide] | 50 | 70 | 90 | 70 | 100 | 100 | 100 | 100 | 90 | 100 | 100 | 100 | 100 | 85 | 100 | 100 | 100 | 100 |  |  | Plant response rating, Pigweed, Palmer (pigweed, palmer; postemergence, 62 g ai/ha): 60; Plant response rating, Pigweed, Palmer (pigweed, palmer; postemergence, 500 g ai/ha): 98
CCc1cc(C(=O)NC(C)C)nn1Cc1ccnc(C(F)(F)F)c1 [Compound 103] |  |  |  | 65 | 80 | 100 | 100 | 100 | 100 | 100 | 100 | 100 | 100 | 80 | 98 | 100 | 100 | 100 |  |  | 
CCOc1cc(C(=O)NCC(F)(F)F)nn1Cc1ccnc(C(F)(F)F)c1 [Compound 104] | 60 | 70 | 75 | 35 | 75 | 100 | 100 | 100 | 100 | 100 | 100 | 100 | 100 | 98 | 98 | 100 | 100 | 100 |  |  | Plant response rating, Pigweed, Palmer (pigweed, palmer; postemergence, 62 g ai/ha): 80; Plant response rating, Pigweed, Palmer (pigweed, palmer; postemergence, 500 g ai/ha): 95
CCCc1cc(C(=O)NCC(F)(F)F)nn1Cc1ccnc(C(F)(F)F)c1 [Compound 105] | 30 | 60 | 75 | 75 | 98 | 98 | 98 | 98 | 98 | 100 | 100 | 100 | 100 | 35 | 75 | 95 | 95 | 100 |  |  | Plant response rating, Pigweed, Palmer (pigweed, palmer; postemergence, 62 g ai/ha): 25; Plant response rating, Pigweed, Palmer (pigweed, palmer; postemergence, 500 g ai/ha): 80
CCCNC(=O)c1cc(CCCl)n(Cc2ccnc(C(F)(F)F)c2)n1 [Compound 145] |  |  |  |  |  |  |  |  |  |  |  |  |  |  |  |  |  |  | 100 | 100 | Plant response rating, Sedge, Umbrella (sedge, umbrella; 125 g ai/ha, scale 0 to 100): 100; Plant response rating, Sedge, Umbrella (sedge, umbrella; 250 g ai/ha, scale 0 to 100): 100
CCONC(=O)c1cc(OCC)n(Cc2ccnc(C(F)(F)F)c2)n1 [Compound 195] |  |  |  |  |  |  |  |  |  |  |  |  |  |  |  |  |  |  | 0 | 75 | Plant response rating, Sedge, Umbrella (sedge, umbrella; [3]): 80; Plant response rating, Sedge, Umbrella (sedge, umbrella; 250 g ai/ha, scale 0 to 100): 85
CCc1cc(C(=O)NC2CC2)nn1Cc1ccnc(OCC(F)(F)F)c1 [Compound 200] |  |  |  |  |  |  |  |  |  |  |  |  |  |  |  |  |  |  | 50 | 80 | Plant response rating, Sedge, Umbrella (sedge, umbrella; [3]): 100; Plant response rating, Sedge, Umbrella (sedge, umbrella; 250 g ai/ha, scale 0 to 100): 100
CCc1cc(C(=O)NC2CC2)nn1Cc1cc(C(F)(F)C(F)(F)F)nn1C [Compound 226] |  |  |  |  |  |  |  |  |  |  |  |  |  |  |  |  |  |  | 20 | 25 | Plant response rating, Sedge, Umbrella (sedge, umbrella; [3]): 85
